Experimental data taken from patent US20230135524A1, “ARYL HYDANTOIN HETEROCYCLES AND METHODS OF USE” (The United States of America,as represented by the …, priority 2020, published 2023).

Assays:
LAMP cells [1] = assay: Growth reduction kinetics in LAMP cells; type: cell-based; conditions: 15 μM and 30 μM, FIG. 20
Text: (§1) This AR dominated cluster 1 is often driven by amplification of the distal AR enhancer (Takeda et al., Cell, 2018, 174(2), 422-432).

LAMP cells [2] = assay: RNA-seq / gene set enrichment and master TF expression in LAMP cells; type: cell-based
Method: FIG. 16A-B are a Gene Set Enrichment Analysis for AR gene pathways (FIG. 16A) and MYC gene pathways (FIG. 16B) in LAMP cells (LNCaP cells engineered with CRISPR to have amplification of the AR enhancer) treated with either 15n or dimethylsulfoxide (DMSO) for 48 hours, followed by RNA-seq.
FIG. 16A-B are Gene Set Enrichment Analyses for AR gene pathways (FIG. 16A) and MYC gene pathways ([…]) in LAMP cells (LNCaP cells engineered with CRISPR (clustered regularly interspaced short palindromic repeats) to have amplification of the AR enhancer) treated with either 15n or DMSO for 48 hours, followed by RNA-seq.
as §1

LuCaP 167 = LuCaP 167 prostate cancer PDX tumor growth; type: in vivo, NSG male mice; conditions: 10 mg/kg oral gavage, 5 days on 2 days off, LuCaP 167 PDX, FIG. 23
Method: LuCaP 167 is a well-characterized androgen sensitive prostate cancer (PCa) PDX model established at the University of Washington and has been validated using short tandem repeat (STR) analysis. All preclinical in vivo experiments were performed in accordance with NCI Animal Care and Use Committee approved protocol. Six-week-old NSGmale mice were housed in a sterile, pathogen-free facility and maintained in a temperature-controlled room under a 12-hour light/dark schedule with water and food ad libitum. All mice were operated under sedation with oxygen and isoflurane. Ibuprofen and/or buprenorphine was administered post-surgery. LuCaP 167 was implanted subcutaneously under the left flank of intact mice. When tumors reached an average volume of ˜500 mm^3, mice were randomized and placed in either control group or treatment groups (n=10/group). […] Tumor burden was assessed twice per week by caliper measurement of two diameters of the tumor (L×W=mm^2) and reported as tumor volume ((L×W^2)/2=mm^3). Body weights were assessed using a weighing scale and recorded in grams. At the end-of-treatment (EOT) timepoint, tumor tissues were excised, weighed, and snap frozen for further analysis.

[3] = Pharmacokinetics in non-tumor bearing BALB/C mice, IV and PO; type: in vivo; conditions: for AUClast—D / Cmax—D: dose-normalised; for AUC(0-t) / Cmax / Tmax / half-life: mouse, plasma
Method: FIG. 14A-B are graphs of time (hours) versus plasma concentration (ng/mL) for intravenous (IV) (FIG. 14A) and oral (PO) (FIG. 14B) administration of 15a and 15n over 12 hours. Error bars represent the standard deviation in ng/mL from three independent mice per time point.
Clearance, Cmax, half life, dose/AUC, and bioavailability were calculated by statistical analysis using PHOENIX™ WINNONLIN™ v7.0 (Certara, Princeton, N.J.). The results are shown in FIGS. 14A and 14B and Table 4.

[4] = system: LAPC4 prostate cancer cells; assay: LAPC4 mouse xenograft tumor volume; type: in vivo, Mice; conditions: oral gavage, LAPC4 mouse xenografts, day 17, FIG. 22
Method: FIG. 22 is a graph of tumor volume on day 17 as a percent change from the baseline.
Treatment was given once for 5 days followed by 2 days of rest. Tumor size was monitored by caliper twice weekly. Change from baseline tumor volume was calculated and reported as a waterfall plot. The in vivo activity is shown in FIG. 14, as measured by the percent change from the baseline.

DU145 = assay: IncuCyte % confluence cell growth inhibition, DU145; type: cell-based; conditions: Homo sapiens, DU-145, read-out: IC50 values (μM), DU145
Method: (§2) Images were then analyzed to discern the % confluence of cells in each well. IC50 values were calculated from dose response curves of the % cell growth inhibition relative to DMSO control at the same time point per each cell line.

AR = biological target: T1, AR (Homo sapiens, UniProt P10275); assay: AR transcriptional output, ARE-luciferase assay in HEK 293T cells; type: cell-based; conditions: for antagonist or inverse agonist activity on AR transcriptional activity (in words): 10 μM, HEK 293T, FIG. 6A; for activity at 10 µM: HEK-293T, read-out: AR antagonist activity (% RLU)
T1 construct: host or cells: HEK 293T
T1 sequence (P10275 1-920): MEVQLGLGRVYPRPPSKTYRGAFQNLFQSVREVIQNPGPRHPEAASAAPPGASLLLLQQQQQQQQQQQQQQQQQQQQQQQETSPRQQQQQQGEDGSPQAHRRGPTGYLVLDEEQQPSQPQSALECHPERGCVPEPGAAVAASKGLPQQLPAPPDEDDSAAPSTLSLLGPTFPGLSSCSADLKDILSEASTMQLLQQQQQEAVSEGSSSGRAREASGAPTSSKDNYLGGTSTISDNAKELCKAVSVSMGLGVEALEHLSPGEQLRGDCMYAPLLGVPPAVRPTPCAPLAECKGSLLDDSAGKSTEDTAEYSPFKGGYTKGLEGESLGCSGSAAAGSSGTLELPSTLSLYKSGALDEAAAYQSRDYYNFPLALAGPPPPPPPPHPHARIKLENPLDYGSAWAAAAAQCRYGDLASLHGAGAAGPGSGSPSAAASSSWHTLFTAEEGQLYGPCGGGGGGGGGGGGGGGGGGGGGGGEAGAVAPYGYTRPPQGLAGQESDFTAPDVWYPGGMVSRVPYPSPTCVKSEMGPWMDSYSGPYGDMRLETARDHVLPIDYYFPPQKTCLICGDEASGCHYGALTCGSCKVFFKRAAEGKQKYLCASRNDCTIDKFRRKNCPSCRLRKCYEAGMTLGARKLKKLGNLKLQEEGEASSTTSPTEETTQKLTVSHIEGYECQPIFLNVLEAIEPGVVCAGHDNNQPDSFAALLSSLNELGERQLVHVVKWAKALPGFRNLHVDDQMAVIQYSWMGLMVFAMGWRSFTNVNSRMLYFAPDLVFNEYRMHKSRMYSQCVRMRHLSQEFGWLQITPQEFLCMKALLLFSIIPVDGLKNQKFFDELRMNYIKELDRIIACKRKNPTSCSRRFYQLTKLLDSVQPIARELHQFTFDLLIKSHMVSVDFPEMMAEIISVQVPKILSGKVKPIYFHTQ
Method: 100% is set to the activity with 200 μM testosterone, and 0% is set to the basal level (no ligand).
Cells were maintained in steroid free media, and stimulated with 200 μM testosterone, followed immediately by administration of exemplary compounds (Table 1, below). RLU is relative luciferase units, relative to DMSO control with 200 μM testosterone alone. Data represent an average of 3 independent experiments performed in triplicate wells per compounds at 10 μM.
Cells were maintained in steroid-free media, and stimulated with 200 μM testosterone, followed immediately by administration of a test compound. […] Compounds were dosed at 10 μM in FIGS. 6A and 6B.
Cells were maintained in steroid-free media, and stimulated with 200 μM testosterone, followed immediately by administration of a test compound.

PC3 = assay: IncuCyte % confluence cell growth inhibition, PC3; type: cell-based; conditions: Homo sapiens, PC-3, read-out: IC50 values (μM), PC3
Method: as §2

LNCaP ARin vivo = assay: IncuCyte % confluence cell growth inhibition, LNCaP ARin vivo; type: cell-based; conditions: Homo sapiens, read-out: IC50 values (μM), LNCaP ARin vivo
Method: as §2

LAPC4 = assay: IncuCyte % confluence cell growth inhibition, LAPC4; type: cell-based; conditions: Homo sapiens, LAPC4, read-out: IC50 values (μM), LAPC4
Method: as §2

22Rv1 = assay: IncuCyte % confluence cell growth inhibition, 22Rv1; type: cell-based; conditions: Homo sapiens, 22Rv1, read-out: IC50 values (μM), 22Rv1
Method: as §2

LNCAP AR = assay: IncuCyte % confluence cell growth inhibition, LNCAP AR; type: cell-based; conditions: read-out: IC50 values (μM), LNCAP AR
Method: as §2

LNCaP ARF876L = assay: IncuCyte % confluence cell growth inhibition, LNCaP ARF876L; type: cell-based; conditions: Homo sapiens, AR-positive, AR mutation F876L, % cell growth inhibition relative to DMSO
Method: as §2

LNCaP = assay: IncuCyte % confluence cell growth inhibition, LNCaP; type: cell-based; conditions: Homo sapiens, read-out: IC50 values (μM), LNCaP
Method: as §2

SMILES | IC50 (DU145) [µM] | antagonist or inverse agonist activity on AR transcriptional activity (in words) (AR) | activity at 10 µM (AR) [%] | IC50 (PC3) [µM] | IC50 (LNCaP ARin vivo) [µM] | IC50 (LAPC4) [µM] | IC50 (22Rv1) [µM] | IC50 (LNCAP AR) [µM] | IC50 (LNCaP ARF876L) [µM] | IC50 (LNCaP) [µM] | also measured
CC1(C)C(=O)N(c2cnc(C#N)c(C(F)(F)F)c2)C(=S)N1Cc1ccc(-c2c[nH]nn2)cc1 [Compound 15n] | – | – | – | – | – | – | – | – | – | – | cell killing compared with enzalutamide (LAMP cells [1]): superior cell killing at lower doses than enzalutamide; ATF4 expression (LAMP cells [2]; 48 hours, FIG. 19): greatly reduced; AR target gene set (Gene Set Enrichment Analysis) (LAMP cells [2]; 48 hours, versus DMSO, RNA-seq): down regulated; MYC target gene set (Gene Set Enrichment Analysis) (LAMP cells [2]; 48 hours, versus DMSO, RNA-seq): down regulated; ATF4 driven amino-acid tRNA synthesis pathway (LAMP cells [2]; compared with enzalutamide): able to also downregulate; anti-tumor effect (average tumor growth rate) (LuCaP 167): superior anti-tumor effect over enzalutamide; AUClast—D ([3]; IV, 1 mg/kg): 6255.85 kg·ng·h/mL/mg; Cmax—D ([3]; IV, 1 mg/kg): 936.94 kg·ng/mL/mg; AUClast—D ([3]; PO, 20 mg/kg): 4866.48 kg·ng·h/mL/mg; Cmax—D ([3]; PO, 20 mg/kg): 549.09 kg·ng/mL/mg; AUC(0-t) ([3]; IV, 1 mg/kg): 6260 ng·h/mL; Cmax ([3]; IV, 1 mg/kg): 937 ng/mL; Tmax ([3]; IV, 1 mg/kg): 0.5 h; half-life ([3]; IV, 1 mg/kg): 9.13 h; AUC(0-t) ([3]; PO, 20 mg/kg): 97300 ng·h/mL; Cmax ([3]; PO, 20 mg/kg): 11000 ng/mL; Tmax ([3]; PO, 20 mg/kg): 1 h; half-life ([3]; PO, 20 mg/kg): 22.3 h; tumor burden (percent change from baseline tumor volume) [4]: retained its ability to reduce tumor burden
CC1(C)C(=O)N(c2ccc(C#N)c(C(F)(F)F)c2)C(=O)N1Cc1ccc(-c2c[nH]nn2)cc1 [Compound 14a, 4-(3-(4-(1H-1,2,3-triazol-4-yl)benzyl)-4,4-dimethyl-2,5-dioxoimidazolidin-1-yl)-2-(trifluoromethyl)benzonitrile] | 84.1 | reduced the transcriptional activity of the AR well below the expression in the absence of any steroids or ligands | -64 | 68.5 | 65.4 | 70 | 46.5 | 32.5 | 35.9 | 44.8 | –
CC1(C)C(=O)N(c2ccc(C#N)c(C(F)(F)F)c2)C(=S)N1c1ccc(-c2c[nH]nn2)cc1 [Compound 16a, 4-(3-(4-(1H-1,2,3-triazol-4-yl)phenyl)-4,4-dimethyl-5-oxo-2-thioxoimidazolidin-1-yl)-2-(trifluoromethyl)benzonitrile] | 39.9 | reduced the transcriptional activity of the AR well below the expression in the absence of any steroids or ligands | -22 | 49.2 | 33.6 | 17.3 | 20.7 | 21.2 | 30.2 | 17.1 | –
